# Assay results: US10196373B2, “Substituted 2-hydroxy-4-(2-(phenylsulfonamido)acetamido)benzoic acid analogs as inhibitors of STAT protein” (University of Central Florida Research Foundation, Inc., priority 2010, dated 2019)
# Like-named read-outs stand apart in the source and are kept apart here.
# Legend:
# K562 cells = assay: Cell viability in cell lines with constitutive activation of STAT5 (Almar Blue); type: cell-based
# Protocol: (§1) To determine whether STAT5 inhbitors could be cytotoxic in cell lines that have constitutive activation of STAT5, the cell lines K562 and MV-4-11 were cultured at concentration 1×10^5, to insure that the cells are at the exponential stage of growth, and treated with the different synthesized molecules at concentrations of 10, 20 and 40 μM. Viability were determined using Almar Blue (Invitrogen) in 96-well plate over 3 consecutive days. Fluorescence was quantified using Spectra Max M5 (Molecular Devices).
# MV-4-11 cells = assay: as above; type: cell-based
# Protocol: as §1
# STAT3 [1] = biological target: STAT3 (Mus musculus, UniProt P42227); assay: Stat3 DNA-binding activity, electrophoretic mobility shift assay (EMSA) with nuclear extracts; type: biochemical
# Protocol: Nuclear extract preparations and electrophoretic mobility shift assay (EMSA) were carried out as previously described (Yang J, et al. (2005) Cancer Res. 65:939-947). […] For direct effect of a test compound on Stat3 DNA-binding activity, nuclear extracts were pre-incubated with the agent for 30 min at room temperature prior to incubation with the radiolabeled probe for 30 min at 30° C. before subjecting to EMSA analysis. […] Cytosolic extract preparation from mammalian cells and luciferase assay previously described (Zhang X, et al. (2010) Biochem Pharmacol 79:1398-1409; Turkson J, et al. (1999) Mol. Cell. Biol. 19:7519-7528; Turkson J, et al. (1998) Mol. Cell. Biol. 18:2545-2552).)
# STAT3 [2] = biological target: STAT3 (Homo sapiens (Human), UniProt P40763); assay: Fluorescence polarization assay, inhibition of binding to STAT3; conditions: inhibition of binding to STAT3 in a fluorescence polarization assay; read-out: Ki (FP)
# Protocol: The fluorescent polarization experiments were performed on an Infinite M1000 (Tecan, Crailsheim, Germany). All assays were performed in the same buffer conditions of 50 mM NaCl, 10 mM Hepes, pH 7.5, 1 mM EDTA, and 2 mM dithiothreitol. Fluorescent-labelled peptides were kept at a final concentration of 10nM in buffered solution. […] of labelled peptides were added to […] of a 300 nM STAT3 protein solution (provided by SignalChem in 50 mM Tris-HCl, pH 7.5, 150 mM NaCl, 0.25 mM DTT, 0.1 mM PMSF, 25% glycerol and stored at −80° C.). Inhibitory molecules were dissolved in pure DMSO and diluted using buffer solution to produce four final concentrations ([…]). 7.5 μL of the inhibitory molecule solution was mixed with the STAT3 protein and labelled peptide solution in black 384-flat well microplates (Coming), and incubated for 15-30 minutes. The M1000 performed a shaking cycle and then read the plates. IC50′s were derived from the output using the curve-fitting software OriginPro 8 (Northampton, MA). The FP data was modelled by the following equation:
# [formula] where X was the concentration of inhibitor and ρwas the corresponding fluorescence at that concentration. The free parameter was half the maximal inhibitory concentration (IC50) and the limiting values was the maximal measured fluorescence polarization (ρ1) and the minimal fluorescence polarization (ρ2). Origin curve fitting software utilizes the Levenberg-Marquardt algorithm and reduced chi-square criterion for convergence. The inhibitor dissociation constant, Ki, was calculated from the derived IC50 values, as per the following formula: […]
# Further details of the fluorescence polarization assay are as described previously (Zhang X, et al. (2010) A novel small-molecule disrupts Stat3 SH2domainphosphotyrosine interactions and Stat3-dependent tumor processes. Biochem Pharmacol 79: 1398-1409).
# DU-145 cells = assay: Cell viability, MTS assay; type: cell-based; conditions: Homo sapiens, DU-145, 72 hours
# Protocol: (§2) To further test activity of these molecules, a whole-cell study involving cancer lines with known abherrant STAT3 expression was conducted. These human cell lines, including prostate cancer (DU145), breast cancer (MDA468), and promyelocytic leukemia (HL-60) were treated with the peptidomimetics and incubated for 72 hours. Disruption of cell viability was measured by MTS assay and IC50 values for the potential inhibitors was determined. OriginPro 8 (Northampton, Mass.) was used to evaluate EC50 using the dose response curve defined as follows:
# (§3) [formula] where y is the fraction of death, x is the log of drug concentration. A2 is the top asymptote, A1 is the bottom asymptote, logx0 is the center of the curve, and p is the hill slope.
# MDA-468 cells = assay: Cell viability, MTS assay; type: cell-based; conditions: Homo sapiens, MDA-468, 72 hours
# Protocol: as §2, §3
# HL60 cells = assay: Cell viability, MTS assay; type: cell-based; conditions: Homo sapiens, HL-60, HL60, 72 hours
# Protocol: as §2, §3
# OCI-AMI.2 cells = assay: Cell viability, MTS assay; type: cell-based
# [3] = inhibition of STAT3 activity in an EMSA
# Chain of STAT3 (Mus musculus, UniProt P42227) (P42227 2-770 limits assumed): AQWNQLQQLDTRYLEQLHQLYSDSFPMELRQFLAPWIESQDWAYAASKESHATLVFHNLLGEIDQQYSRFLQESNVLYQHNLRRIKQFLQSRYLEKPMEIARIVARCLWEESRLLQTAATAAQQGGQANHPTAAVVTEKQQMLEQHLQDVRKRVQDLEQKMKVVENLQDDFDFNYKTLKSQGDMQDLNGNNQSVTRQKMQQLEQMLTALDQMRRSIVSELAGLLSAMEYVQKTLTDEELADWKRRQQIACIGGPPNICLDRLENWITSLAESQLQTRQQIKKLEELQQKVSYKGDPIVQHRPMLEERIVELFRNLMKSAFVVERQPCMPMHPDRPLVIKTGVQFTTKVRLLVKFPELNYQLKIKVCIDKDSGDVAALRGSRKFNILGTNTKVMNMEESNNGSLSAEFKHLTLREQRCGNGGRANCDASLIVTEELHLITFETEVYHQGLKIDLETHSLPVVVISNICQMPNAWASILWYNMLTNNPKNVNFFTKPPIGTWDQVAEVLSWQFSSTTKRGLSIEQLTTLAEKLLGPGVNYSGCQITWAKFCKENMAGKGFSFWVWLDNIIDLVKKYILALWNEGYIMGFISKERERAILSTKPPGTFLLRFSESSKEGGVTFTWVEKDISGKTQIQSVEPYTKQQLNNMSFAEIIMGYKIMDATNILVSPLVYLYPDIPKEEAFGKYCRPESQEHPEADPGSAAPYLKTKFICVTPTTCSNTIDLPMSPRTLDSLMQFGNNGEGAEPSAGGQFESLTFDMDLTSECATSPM
# Chain of STAT3 (Homo sapiens (Human), UniProt P40763) (P40763 whole entry): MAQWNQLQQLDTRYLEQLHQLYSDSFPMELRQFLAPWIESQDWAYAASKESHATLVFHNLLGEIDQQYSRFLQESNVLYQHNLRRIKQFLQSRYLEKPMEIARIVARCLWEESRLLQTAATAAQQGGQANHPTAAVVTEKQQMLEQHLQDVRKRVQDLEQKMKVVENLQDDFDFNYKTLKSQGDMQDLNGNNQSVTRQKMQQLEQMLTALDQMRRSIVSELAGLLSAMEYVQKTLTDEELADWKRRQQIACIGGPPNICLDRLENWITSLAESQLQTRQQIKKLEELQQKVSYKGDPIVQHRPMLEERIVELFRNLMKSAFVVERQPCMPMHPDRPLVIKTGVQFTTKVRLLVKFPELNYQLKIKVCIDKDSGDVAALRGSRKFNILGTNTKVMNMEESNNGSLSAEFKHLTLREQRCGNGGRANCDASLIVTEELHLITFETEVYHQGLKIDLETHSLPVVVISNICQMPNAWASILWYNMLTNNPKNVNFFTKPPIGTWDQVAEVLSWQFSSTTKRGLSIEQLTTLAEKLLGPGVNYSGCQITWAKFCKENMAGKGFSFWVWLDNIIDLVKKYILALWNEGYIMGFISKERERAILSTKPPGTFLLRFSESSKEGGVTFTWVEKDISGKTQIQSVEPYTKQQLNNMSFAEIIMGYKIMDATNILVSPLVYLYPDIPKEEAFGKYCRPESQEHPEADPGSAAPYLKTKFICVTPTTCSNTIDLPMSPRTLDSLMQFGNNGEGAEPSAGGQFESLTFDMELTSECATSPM
IC50 (K562 cells) [µM],IC50 (MV-4-11 cells) [µM],IC50 (DU-145 cells) [µM],IC50 (HL60 cells) [µM],IC50 (OCI-AMI.2 cells) [µM],Compound,IC50 (STAT3 [1]) [µM],Ki (STAT3 [2]) [µM],IC50 (MDA-468 cells) [µM],IC50 (K562 cells; Homo sapiens) [µM],"IC50 (MV-4-11 cells; Homo sapiens, MV4-11) [µM]",IC50 (STAT3 [1]; [3]) [µM]
> 80,51 ± 7,–,–,–,Cc1ccc(S(=O)(=O)N(CC(=O)N(Cc2ccc(C3CCCCC3)cc2)c2ccc(C(=O)O)c(O)c2)C(=O)OC(C)(C)C)cc1 [SF-1-087],–,–,–,–,–,–
–,–,–,–,–,"Cc1ccc(S(=O)(=O)N(C)CC(=O)N(Cc2ccc(-c3ccc(-c4ccc(C(N)=O)cc4)cc3)cc2)c2ccc(C(=O)O)c(O)c2)cc1 [Compound 27NH, 4-(N-((4″-carbamoyl-[1,1′:4′,1″-terphenyl]-4-yl)methyl)-2-(N,4-dimethylphenylsulfonamido)acetamido)-2-hydroxybenzoic acid]",43 ± 1.3,16.7 ± 1.7,–,–,–,–
77 ± 5,> 80,–,–,–,Cc1ccc(S(=O)(=O)N(CC(=O)N(Cc2ccccc2)c2ccc(C(=O)O)c(O)c2)C(=O)OC(C)(C)C)cc1 [SF-1-088],–,–,–,–,–,–
–,–,69.6 ± 3.4,59.1 ± 11.5,53.5 ± 22.8,"CN(CC(=O)N(Cc1ccc(C2CCCCC2)cc1)c1ccc(C(=O)O)c(O)c1)S(=O)(=O)c1ccc(C#N)cc1 [Compound 45I, 4-(2-(4-cyano-N-methylphenylsulfonamido)-N-(4-cyclohexylbenzyl)acetamido)-2-hydroxy-benzoic acid]",–,–,27 ± 2.7,–,–,–
–,–,90.4 ± 3.1,78.5 ± 1.8,85.9 ± 0.4,"Cc1cccc(S(=O)(=O)N(C)CC(=O)N(Cc2ccc(C3CCCCC3)cc2)c2ccc(C(=O)O)c(O)c2)c1 [Compound 45A, 4-(N-(4-cyclohexylbenzyl)-2-(N,3-dimethylphenylsulfonamido)acetamido)-2-hydroxy-benzoic acid]",–,–,59.6 ± 4,–,–,–
–,–,92.7 ± 27.9,> 100,> 100,"COc1ccc(S(=O)(=O)N(C)CC(=O)N(Cc2ccc(C3CCCCC3)cc2)c2ccc(C(=O)O)c(O)c2)cc1 [Compound 45M, 4-(N-(4-cyclohexylbenzyl)-2-(4-methoxy-N-methylphenylsulfonamido)acetamido)-2-hydroxybenzoic acid]",–,–,71.4 ± 13.6,–,–,–
–,–,> 100,74.9 ± 20.2,> 100,"CN(C)c1cccc2c(S(=O)(=O)N(C)CC(=O)N(Cc3ccc(C4CCCCC4)cc3)c3ccc(C(=O)O)c(O)c3)cccc12 [Compound 45G, 4-(N-(4-cyclohexylbenzyl)-2-(5-(dimethylamino)-N-methylnaphthalene-1-sulfonamido)acetamido)-2-hydroxybenzoic acid]",–,–,45.5 ± 7.9,–,–,–
–,–,> 100,82.8 ± 19,> 100,Cc1ccc(S(=O)(=O)N(C)CC(=O)N(Cc2ccc(-c3ccc(-c4cccc(C#N)c4)cc3)cc2)c2ccc(C(=O)O)c(O)c2)cc1 [Compound 27NC],–,–,90.5 ± 63.2,–,–,–
–,–,> 100,> 100,> 100,"CN(CC(=O)N(Cc1ccc(C2CCCCC2)cc1)c1ccc(C(=O)O)c(O)c1)S(=O)(=O)c1cccc2cccnc12 [Compound 45F, 4-(N-(4-cyclohexylbenzyl)-2-(N-methylquinoline-8-sulfonamido)acetamido)-2-hydroxy-benzoic acid]",–,41 ± 0.4,> 100,–,–,24.6 ± 3.4
–,–,> 100,> 100,> 100,"CN(CC(=O)N(Cc1ccc(C2CCCCC2)cc1)c1ccc(C(=O)O)c(O)c1)S(=O)(=O)c1cn(C)cn1 [Compound 45H, 4-(N-(4-cyclohexylbenzyl)-2-(N,1-dimethyl-1H-imidazole-4-sulfonamido)acetamido)-2-hydroxybenzoic acid]",–,–,> 100,–,–,–
–,–,74.5 ± 30.2,76.9 ± 50.5,33.3 ± 19.8,"CN(CC(=O)N(Cc1ccc(C2CCCCC2)cc1)c1ccc(C(=O)O)c(O)c1)S(=O)(=O)c1cccc2ccccc12 [Compound 45E, 4-(N-(4-cyclohexylbenzyl)-2-(N-methylnaphthalene-1-sulfonamido)acetamido)-2-hydroxy-benzoic acid]",–,26.5 ± 0.4,46.5 ± 12.4,–,–,28.8 ± 2
–,–,94.4 ± 6.8,37.4 ± 14,58.4 ± 13.8,"Cc1ccc(S(=O)(=O)N(C)CC(=O)N(Cc2ccc(-c3ccc(-c4ccc(C#N)cc4)cc3)cc2)c2ccc(C(=O)O)c(O)c2)cc1 [Compound 27NG, 4-(N-((4′-cyanoterphenyl-4-yl)methyl)-2-(N,4-dimethylphenylsulfonamido)acetamido)-2-hydroxybenzoic acid]",–,–,32.5 ± 15.5,–,–,–
–,–,67.5 ± 24.2,56.3 ± 9.3,76.4 ± 10.8,"CN(CC(=O)N(Cc1ccc(C2CCCCC2)cc1)c1ccc(C(=O)O)c(O)c1)S(=O)(=O)c1ccc(Cl)cc1 [Compound 45K, 4-(2-(4-chloro-N-methylphenylsulfonamido)-(4-cyclohexylbenzyl)acetamido)-2-hydroxy-benzoic acid]",–,–,29.7 ± 16.7,–,–,–
–,–,45.9 ± 8.6,47.4 ± 8.2,44.9 ± 7.1,CN(CC(=O)N(Cc1ccc(C2CCCCC2)cc1)c1ccc(C(=O)O)c(O)c1)S(=O)(=O)c1ccc(Br)cc1 [Compound 45J],–,–,19.5 ± 2,–,–,–
–,–,72.7 ± 18.4,75.1 ± 25.1,84.4 ± 22.1,"CN(CC(=O)N(Cc1ccc(C2CCCCC2)cc1)c1ccc(C(=O)O)c(O)c1)S(=O)(=O)c1ccc(F)cc1 [Compound 45L, 4-(N-(4-cyclohexylbenzyl)-2-(4-fluoro-N-methylphenylsulfonamido)acetamido)-2-hydroxy benzoic acid]",–,–,41.3 ± 5.7,–,–,–
–,–,> 100,68 ± 32.8,76.7 ± 27.1,"Cc1ccc(S(=O)(=O)N(C)CC(=O)N(Cc2ccc(-c3ccc(C(=O)O)cc3)cc2)c2ccc(C(=O)O)c(O)c2)cc1 [Compound 27LE, 4′-((N-(4-carboxy-3-hydroxyphenyl)-2-(N,4-dimethylphenylsulfonamido)acetamido)methyl)-[1,1′-biphenyl]-4-carboxylic acid]",–,–,52.9 ± 22.5,–,–,–

Compound,IC50 (K562 cells) [µM],IC50 (MV-4-11 cells) [µM],IC50 (DU-145 cells) [µM],IC50 (HL60 cells) [µM],IC50 (OCI-AMI.2 cells) [µM],IC50 (STAT3 [1]) [µM],Ki (STAT3 [2]) [µM],IC50 (MDA-468 cells) [µM],IC50 (K562 cells; Homo sapiens) [µM],"IC50 (MV-4-11 cells; Homo sapiens, MV4-11) [µM]",IC50 (STAT3 [1]; [3]) [µM]
"Cc1cc(C)c(S(=O)(=O)N(C)CC(=O)N(Cc2ccc(C3CCCCC3)cc2)c2ccc(C(=O)O)c(O)c2)c(C)c1 [Compound 45b, 4-(N-(4-cyclohexylbenzyl)-2-(N,2,4,6-tetramethylphenylsulfonamido)acetamido)-2-hydroxy-benzoic acid]",–,–,44.5 ± 16,40.4 ± 20.2,65.4 ± 13,–,–,22.6 ± 8.3,80 ± 18,> 80,–
"Cc1ccc(S(=O)(=O)N(C)CC(=O)N(Cc2ccc(C3CCN(S(=O)(=O)c4ccc(C#N)cc4)CC3)cc2)c2ccc(C(=O)O)c(O)c2)cc1 [Compound 27KG, 4-(N-(4-(1-((4-cyanophenyl)sulfonyl)piperidin-4-yl)benzyl)-2-(N,4-dimethylphenyl-sulfonamido)acetamido)-2-hydroxybenzoic acid]",–,–,> 100,83.1 ± 13.5,> 100,–,21.5 ± 2.2,94.9 ± 8.8,–,–,50 ± 15
"CN(CC(=O)N(Cc1ccc(C2CCCCC2)cc1)c1ccc(C(=O)O)c(O)c1)S(=O)(=O)c1ccc2ccccc2c1 [Compound 45D, 4-(N-(4-cyclohexylbenzyl)-2-(N-methylnaphthalene-2-sulfonamido)acetamido)-2-hydroxy-benzoic acid]",–,–,81 ± 39.3,99.8 ± 15.6,93.5 ± 32.2,–,–,45.4 ± 23.2,–,–,79.2 ± 11.2
